# Source: patent US5591741A, “Fungicidal spiroheterocyclic derivatives” (American Cyanamid Company, priority 1993, dated 1997)
# Columns and labels:
# Plasmopara viticola = assay: Antisporulant activity against vine downy mildew (PVA); type: in vivo; conditions: vine leaves, antisporulant foliar spray, 600 ppm, 750 l/ha
# How it was run: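 Cabernet Sauvignon vines (~8 cm) inoculated on lower leaf surfaces with 5×10^4 zoosporangia/ml, held 24 h at 21° C high humidity then 24 h glasshouse. Infected leaves sprayed underside with 600 ppm compound in 1:1 water/acetone, 0.04% Tween 20, 750 l/ha; 96 h glasshouse, 24 h humidity. Sporulating leaf area rated versus control.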
# Alternaria solani = assay: Activity against tomato early blight (AS); type: in vivo; conditions: Table VI; tomato seedlings, contact prophylactic foliar spray, 4 days
# How it was run: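 Foliar contact prophylactic spray on tomato seedlings (cv Outdoor Girl, second true leaf expanded) in acetone/water 50:50 with 0.04% Tween 20; 24 h at 20° C, 40% R.H., then inoculation with 10^4 spores/ml A. solani conidia. Kept moist at 21° C; lesion cover rated 4 days post-inoculation against untreated or diluent-sprayed controls.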
# Botrytis cinerea = assay: Direct protectant activity against broad bean grey mould (BCB); type: in vivo; conditions: direct protectant foliar spray, 600 ppm, 4 days
# How it was run: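 Broad bean plants (cv The Sutton, two leaf pairs) sprayed on upper leaf surfaces at 600 ppm, then inoculated 24 h later with 10^6 conidia/ml. Kept 4 days at 22 °C, high humidity; disease control rated from % leaf area with lesions against untreated or diluent controls.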
# Leptosphaeria nodorum = assay: Activity against wheat leafspot (LN); type: in vivo; conditions: direct therapeutic foliar spray, 600 ppm, 6-8 days
# How it was run: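 Wheat cv Norman at single-leaf stage spray-inoculated with 1.5×10^6 conidia/ml, held 24 h at high humidity, then sprayed therapeutically with test compound at 600 ppm. Kept 6-8 days at 22° C, 70% humidity; lesion density per leaf rated against untreated or diluent-sprayed controls.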
# [1] = tested on: Erysiphe graminis f.sp. hordei; assay: Activity against barley powdery mildew, direct therapeutic (EGT); type: in vivo; conditions: direct therapeutic foliar spray, 600 ppm, up to 7 days
# How it was run: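 Barley seedlings (cv. Golden Promise, single-leaf stage) were dusted with mildew conidia one day before a therapeutic foliar spray of 600 ppm compound. Plants were kept at 18 °C and 40% humidity for up to 7 days, and sporulating leaf area was rated against untreated or diluent-sprayed controls.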
# [2] = tested on: Erysiphe graminis f.sp. hordei; assay: Direct protectant activity against barley powdery mildew (EGP); type: in vivo; conditions: direct protectant foliar spray, 8 days
# How it was run: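 Barley seedlings (cv Golden Promise, single-leaf stage) were foliar-sprayed, held 24 h at 18 °C/40% RH, then dusted with mildew conidia. After 8 days at 18 °C/40% RH, sporulating leaf area was scored as a rating against untreated or diluent-sprayed controls.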
# Phytophthora infestans = type: in vivo; conditions: tomato, direct protectant foliar spray
# [3] = tested on: Pseudocercosporella herpotrichoides; assay: Activity against wheat eyespot in-vitro (PHI); type: cell-based; conditions: 10 ppm, 10 days, 20° C., mycelial growth
# How it was run: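 P. herpotrichoides mycelial fragments (5×10^4/ml) grown in half-strength PDB with compound at 10 ppm final, added from acetone. Incubated 10 days at 20 °C; mycelial growth rated against untreated or diluent controls.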
# Rhizoctonia solani = assay: Activity against Rhizoctonia in-vitro (RSI); type: cell-based; conditions: 10 ppm, 10 days, 20° C., mycelial growth
# How it was run: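 R. solani mycelial fragments (5×10^4/ml) in half-strength Potato Dextrose Broth with compound added from acetone to 10 ppm final. Mycelial growth assessed after 10 days at 20° C, rated against untreated or diluent control.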
# Venturia inaequalis = assay: Activity against apple scab in-vitro (VII); type: cell-based; conditions: 10 ppm, 10 days, 20° C., mycelial growth
# How it was run: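 Compound in acetone was tested at 10 ppm final in half-strength Potato Dextrose Broth inoculated with V. inaequalis mycelial fragments and spores at 5×10^4 propagules/ml. After 10 days at 20° C, mycelial growth was rated against untreated or diluent controls.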
# Pyricularia oryzae = type: in vivo; conditions: rice seedlings, direct therapeutic foliar spray, 600 ppm, 4-5 days
SMILES,disease control rating PVA (Plasmopara viticola),disease control rating AS (Alternaria solani),disease control rating BCB (Botrytis cinerea),disease control rating LN (Leptosphaeria nodorum),disease control rating EGT [1],disease control rating EGP [2],disease control rating PIP (Phytophthora infestans),disease control rating PHI [3],disease control rating RSI (Rhizoctonia solani),disease control rating VII (Venturia inaequalis),disease control rating PO (Pyricularia oryzae)
CC(C)(C)C1CCC2(CC1)CC(NCc1ccccc1)CO2 (centres unmarked) [Compound 31],2 (greater than 80% disease control),1 (about 50-80% disease control),0 (less than 50% disease control),0 (less than 50% disease control),2 (greater than 80% disease control),2 (greater than 80% disease control),0 (less than 50% disease control),0 (less than 50% disease control),0 (less than 50% disease control),1 (about 50-80% disease control),0 (less than 50% disease control)
CCCCCCNC1COC2(CCCCC2)C1 (centres unmarked) [Compound 32],0 (less than 50% disease control),0 (less than 50% disease control),0 (less than 50% disease control),0 (less than 50% disease control),2 (greater than 80% disease control),2 (greater than 80% disease control),0 (less than 50% disease control),0 (less than 50% disease control),0 (less than 50% disease control),0 (less than 50% disease control),0 (less than 50% disease control)
c1ccc(CNC2COC3(CCCCC3)C2)cc1 (centres unmarked) [Compound 33],0 (less than 50% disease control),0 (less than 50% disease control),0 (less than 50% disease control),0 (less than 50% disease control),1 (about 50-80% disease control),0 (less than 50% disease control),0 (less than 50% disease control),0 (less than 50% disease control),0 (less than 50% disease control),0 (less than 50% disease control),0 (less than 50% disease control)
Clc1ccc(CNC2COC3(CCCCC3)C2)cc1 (centres unmarked) [Compound 34],0 (less than 50% disease control),0 (less than 50% disease control),0 (less than 50% disease control),0 (less than 50% disease control),2 (greater than 80% disease control),2 (greater than 80% disease control),0 (less than 50% disease control),0 (less than 50% disease control),0 (less than 50% disease control),0 (less than 50% disease control),0 (less than 50% disease control)
C1CCN(C2COC3(CCCCC3)C2)CC1 (centres unmarked) [Compound 35],0 (less than 50% disease control),0 (less than 50% disease control),0 (less than 50% disease control),0 (less than 50% disease control),0 (less than 50% disease control),0 (less than 50% disease control),0 (less than 50% disease control),0 (less than 50% disease control),0 (less than 50% disease control),0 (less than 50% disease control),0 (less than 50% disease control)
CC1CN(C2COC3(CCCCC3)C2)CC(C)O1 (centres unmarked) [Compound 36],0 (less than 50% disease control),0 (less than 50% disease control),0 (less than 50% disease control),0 (less than 50% disease control),2 (greater than 80% disease control),2 (greater than 80% disease control),0 (less than 50% disease control),0 (less than 50% disease control),0 (less than 50% disease control),1 (about 50-80% disease control),0 (less than 50% disease control)
CCCCCCNC1COC2(CCC(C(C)(C)C)CC2)C1 (centres unmarked) [Compound 37],0 (less than 50% disease control),0 (less than 50% disease control),1 (about 50-80% disease control),0 (less than 50% disease control),2 (greater than 80% disease control),2 (greater than 80% disease control),0 (less than 50% disease control),1 (about 50-80% disease control),0 (less than 50% disease control),0 (less than 50% disease control),0 (less than 50% disease control)
CCCCCCNC1COC2(CCC(C(C)(C)C)CC2)C1 (centres unmarked) [Compound 38],0 (less than 50% disease control),2 (greater than 80% disease control),0 (less than 50% disease control),0 (less than 50% disease control),2 (greater than 80% disease control),2 (greater than 80% disease control),0 (less than 50% disease control),2 (greater than 80% disease control),1 (about 50-80% disease control),0 (less than 50% disease control),0 (less than 50% disease control)
CCCCCCNC1COC2(CCC(C(C)(C)C)CC2)C1 (centres unmarked) [Compound 39],0 (less than 50% disease control),2 (greater than 80% disease control),0 (less than 50% disease control),0 (less than 50% disease control),2 (greater than 80% disease control),2 (greater than 80% disease control),0 (less than 50% disease control),1 (about 50-80% disease control),0 (less than 50% disease control),0 (less than 50% disease control),0 (less than 50% disease control)
CCCCCCNC1COC2(CCC(C(C)(C)C)CC2)C1 (centres unmarked) [Compound 40],0 (less than 50% disease control),2 (greater than 80% disease control),0 (less than 50% disease control),0 (less than 50% disease control),2 (greater than 80% disease control),2 (greater than 80% disease control),0 (less than 50% disease control),1 (about 50-80% disease control),0 (less than 50% disease control),0 (less than 50% disease control),0 (less than 50% disease control)
